Tests used:
[1] = target: Phosphatidylinositol 4,5-bisphosphate 3-kinase catalytic subunit gamma isoform (Homo sapiens) (UniProt P48736); experiment: Selectivity interaction (KinomeScan (DiscoverX)) EUB0000877a PIK3CG; settings: at 10 µM
[2] = target: Serine/threonine-protein kinase N2 (Homo sapiens, UniProt Q16513); experiment: Selectivity interaction (Upstate Kinase Profiler service (Millipore)) EUB0000056c PKN2; settings: at 1 µM
[3] = target: T1, Serine/threonine-protein kinase D3 (Homo sapiens) (UniProt O94806); experiment: Selectivity interaction (ActivX KiNativ screen (kinase selectivity in THP-1 cell lysates)) EUB0000639a PRKD3; type: subcellular; settings: lysate, at 0.01 µM
T1 sequence (whole entry): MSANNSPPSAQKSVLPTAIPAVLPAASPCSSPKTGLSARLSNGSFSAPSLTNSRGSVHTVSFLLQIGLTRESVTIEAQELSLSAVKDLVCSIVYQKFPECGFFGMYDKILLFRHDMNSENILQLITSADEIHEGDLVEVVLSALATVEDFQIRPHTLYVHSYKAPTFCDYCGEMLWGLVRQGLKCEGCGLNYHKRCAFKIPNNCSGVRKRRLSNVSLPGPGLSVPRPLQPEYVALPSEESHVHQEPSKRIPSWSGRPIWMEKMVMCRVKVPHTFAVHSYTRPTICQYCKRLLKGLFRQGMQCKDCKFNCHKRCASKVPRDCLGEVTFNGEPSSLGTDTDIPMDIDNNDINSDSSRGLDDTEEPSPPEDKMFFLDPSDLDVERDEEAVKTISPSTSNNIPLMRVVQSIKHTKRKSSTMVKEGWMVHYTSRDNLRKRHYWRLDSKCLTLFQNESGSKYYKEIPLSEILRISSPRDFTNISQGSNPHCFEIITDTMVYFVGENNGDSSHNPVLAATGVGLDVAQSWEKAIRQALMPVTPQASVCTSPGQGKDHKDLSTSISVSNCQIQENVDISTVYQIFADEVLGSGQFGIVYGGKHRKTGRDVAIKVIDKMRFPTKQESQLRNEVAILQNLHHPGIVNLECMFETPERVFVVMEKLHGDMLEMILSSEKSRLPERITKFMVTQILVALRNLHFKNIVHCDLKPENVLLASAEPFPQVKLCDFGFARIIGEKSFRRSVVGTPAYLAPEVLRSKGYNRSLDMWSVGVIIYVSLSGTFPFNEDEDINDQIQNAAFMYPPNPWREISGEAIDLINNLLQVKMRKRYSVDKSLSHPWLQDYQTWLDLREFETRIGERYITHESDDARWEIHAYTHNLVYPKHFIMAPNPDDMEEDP

[4] = target: T2, Mitogen-activated protein kinase 15 (Homo sapiens) (UniProt Q8TD08); experiment: Selectivity interaction (KinomeScan (DiscoverX)) EUB0000595a MAPK15; settings: at 10 µM
T2 sequence (whole entry): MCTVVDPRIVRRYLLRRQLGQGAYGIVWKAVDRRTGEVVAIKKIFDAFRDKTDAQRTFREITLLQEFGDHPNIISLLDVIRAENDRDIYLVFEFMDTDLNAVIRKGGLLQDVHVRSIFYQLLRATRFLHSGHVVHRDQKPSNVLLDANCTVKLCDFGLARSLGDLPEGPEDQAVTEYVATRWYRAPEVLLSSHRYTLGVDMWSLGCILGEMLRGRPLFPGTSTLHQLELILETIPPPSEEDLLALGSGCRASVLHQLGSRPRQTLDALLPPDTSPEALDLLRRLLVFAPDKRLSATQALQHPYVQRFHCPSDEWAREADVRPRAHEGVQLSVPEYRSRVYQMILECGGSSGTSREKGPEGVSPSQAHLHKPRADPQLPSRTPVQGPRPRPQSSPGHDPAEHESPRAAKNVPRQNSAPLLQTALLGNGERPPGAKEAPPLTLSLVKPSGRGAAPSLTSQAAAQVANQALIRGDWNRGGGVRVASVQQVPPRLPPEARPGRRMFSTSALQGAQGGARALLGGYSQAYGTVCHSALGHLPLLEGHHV

[5] = target: T3, Aurora kinase A (Homo sapiens) (UniProt O14965); experiment: Selectivity interaction (KinomeScan (DiscoverX)) EUB0001049a STK6; settings: at 1 µM
T3 sequence (whole entry): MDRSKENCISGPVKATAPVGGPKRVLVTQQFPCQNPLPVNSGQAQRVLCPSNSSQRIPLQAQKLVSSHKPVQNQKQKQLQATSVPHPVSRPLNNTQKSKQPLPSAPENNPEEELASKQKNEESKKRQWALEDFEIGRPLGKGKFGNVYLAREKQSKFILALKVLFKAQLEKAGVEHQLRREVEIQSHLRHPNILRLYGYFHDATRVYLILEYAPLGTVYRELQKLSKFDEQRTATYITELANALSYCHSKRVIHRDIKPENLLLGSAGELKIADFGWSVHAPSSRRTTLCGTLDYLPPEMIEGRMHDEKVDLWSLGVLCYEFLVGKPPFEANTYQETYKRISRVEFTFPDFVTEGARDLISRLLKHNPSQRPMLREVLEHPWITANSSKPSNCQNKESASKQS

[6] = target: CDK4/Cyclin D3 (Homo sapiens) (UniProt P11802+P30281); experiment: Selectivity interaction (KinomeScan (DiscoverX)) EUB0000655a CDK4; type: protein-complex assay; settings: at 10 µM
[7] = Selectivity interaction (KinomeScan (DiscoverX)) EUB0001079a PKNB; settings: at 1 µM
[8] = target: T4, Serine/threonine-protein kinase TBK1 (Homo sapiens) (UniProt Q9UHD2); experiment: Selectivity interaction (KinomeScan (DiscoverX)) EUB0000229b TBK1; settings: at 10 µM
T4 sequence (whole entry): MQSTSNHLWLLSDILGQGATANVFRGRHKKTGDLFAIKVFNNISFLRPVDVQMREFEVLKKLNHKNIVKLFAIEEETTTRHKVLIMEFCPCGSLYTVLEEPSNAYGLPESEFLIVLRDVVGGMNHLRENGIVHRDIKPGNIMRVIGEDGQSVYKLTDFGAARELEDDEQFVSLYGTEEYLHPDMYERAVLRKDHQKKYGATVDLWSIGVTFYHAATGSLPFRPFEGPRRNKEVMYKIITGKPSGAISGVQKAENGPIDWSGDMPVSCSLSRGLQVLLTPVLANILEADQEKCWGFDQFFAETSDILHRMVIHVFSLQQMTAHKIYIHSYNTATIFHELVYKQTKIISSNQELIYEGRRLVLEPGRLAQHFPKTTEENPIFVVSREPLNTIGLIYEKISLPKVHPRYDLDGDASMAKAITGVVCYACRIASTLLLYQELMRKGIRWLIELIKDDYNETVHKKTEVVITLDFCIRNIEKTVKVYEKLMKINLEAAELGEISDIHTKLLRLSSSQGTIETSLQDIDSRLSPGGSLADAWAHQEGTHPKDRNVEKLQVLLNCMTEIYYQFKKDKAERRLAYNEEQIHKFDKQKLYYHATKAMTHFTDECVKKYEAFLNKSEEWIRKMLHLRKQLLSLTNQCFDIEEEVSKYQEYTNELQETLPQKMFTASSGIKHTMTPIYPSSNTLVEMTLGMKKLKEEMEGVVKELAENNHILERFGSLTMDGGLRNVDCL

[9] = target: Mitogen-activated protein kinase 6 (Homo sapiens) (UniProt Q16659); settings: at 10 µM
Sequence of Mitogen-activated protein kinase 6 (Homo sapiens) (Q16659 whole entry): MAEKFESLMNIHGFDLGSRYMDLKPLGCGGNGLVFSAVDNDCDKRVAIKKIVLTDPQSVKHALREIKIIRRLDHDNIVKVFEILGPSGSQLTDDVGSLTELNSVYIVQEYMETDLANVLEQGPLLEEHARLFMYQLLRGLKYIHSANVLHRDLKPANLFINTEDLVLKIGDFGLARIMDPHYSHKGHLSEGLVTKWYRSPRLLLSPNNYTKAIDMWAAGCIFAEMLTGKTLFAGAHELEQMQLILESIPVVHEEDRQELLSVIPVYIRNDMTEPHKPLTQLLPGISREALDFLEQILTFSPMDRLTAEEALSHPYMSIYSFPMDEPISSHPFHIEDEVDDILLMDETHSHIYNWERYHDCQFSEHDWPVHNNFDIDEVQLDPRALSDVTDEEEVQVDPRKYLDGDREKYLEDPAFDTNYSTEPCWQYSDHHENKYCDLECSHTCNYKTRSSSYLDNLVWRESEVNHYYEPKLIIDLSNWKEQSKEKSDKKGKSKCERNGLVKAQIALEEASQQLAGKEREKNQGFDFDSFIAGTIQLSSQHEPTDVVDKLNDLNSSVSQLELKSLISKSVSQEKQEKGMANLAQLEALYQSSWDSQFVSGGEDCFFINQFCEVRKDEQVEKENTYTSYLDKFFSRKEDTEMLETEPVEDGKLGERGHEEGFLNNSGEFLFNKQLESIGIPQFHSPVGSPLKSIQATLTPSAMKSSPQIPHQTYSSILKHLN

Sequence of Phosphatidylinositol 4,5-bisphosphate 3-kinase catalytic subunit gamma isoform (Homo sapiens) (P48736 whole entry, looked up, canonical isoform): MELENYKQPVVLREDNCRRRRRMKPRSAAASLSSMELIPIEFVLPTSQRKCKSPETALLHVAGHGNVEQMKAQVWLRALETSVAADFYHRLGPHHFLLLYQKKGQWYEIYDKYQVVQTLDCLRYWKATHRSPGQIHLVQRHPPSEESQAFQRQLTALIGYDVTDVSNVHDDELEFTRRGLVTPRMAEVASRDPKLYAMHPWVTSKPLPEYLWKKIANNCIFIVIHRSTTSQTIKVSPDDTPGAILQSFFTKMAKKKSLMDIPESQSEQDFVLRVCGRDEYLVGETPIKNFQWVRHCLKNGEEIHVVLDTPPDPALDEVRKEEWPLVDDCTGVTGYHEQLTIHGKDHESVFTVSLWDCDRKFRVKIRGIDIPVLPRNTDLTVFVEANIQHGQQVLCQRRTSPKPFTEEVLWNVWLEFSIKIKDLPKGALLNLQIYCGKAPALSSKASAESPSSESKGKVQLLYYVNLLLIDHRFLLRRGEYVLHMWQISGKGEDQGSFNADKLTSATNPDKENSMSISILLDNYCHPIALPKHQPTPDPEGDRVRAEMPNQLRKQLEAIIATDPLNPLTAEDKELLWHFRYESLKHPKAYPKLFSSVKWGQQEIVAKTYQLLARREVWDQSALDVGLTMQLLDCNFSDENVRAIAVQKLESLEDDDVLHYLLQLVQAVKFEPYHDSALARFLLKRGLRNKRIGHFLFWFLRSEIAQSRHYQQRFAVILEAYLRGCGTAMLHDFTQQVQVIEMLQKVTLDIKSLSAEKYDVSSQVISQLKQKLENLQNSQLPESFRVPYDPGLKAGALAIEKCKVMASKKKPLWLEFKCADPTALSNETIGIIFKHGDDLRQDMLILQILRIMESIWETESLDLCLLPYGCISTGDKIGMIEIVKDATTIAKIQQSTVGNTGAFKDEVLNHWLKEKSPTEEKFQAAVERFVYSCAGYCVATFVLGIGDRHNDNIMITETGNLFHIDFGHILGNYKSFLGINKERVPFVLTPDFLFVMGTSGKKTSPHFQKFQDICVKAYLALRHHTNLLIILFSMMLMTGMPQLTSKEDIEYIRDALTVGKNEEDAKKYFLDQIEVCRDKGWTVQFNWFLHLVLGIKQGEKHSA
Sequence of Serine/threonine-protein kinase N2 (Q16513 whole entry, looked up): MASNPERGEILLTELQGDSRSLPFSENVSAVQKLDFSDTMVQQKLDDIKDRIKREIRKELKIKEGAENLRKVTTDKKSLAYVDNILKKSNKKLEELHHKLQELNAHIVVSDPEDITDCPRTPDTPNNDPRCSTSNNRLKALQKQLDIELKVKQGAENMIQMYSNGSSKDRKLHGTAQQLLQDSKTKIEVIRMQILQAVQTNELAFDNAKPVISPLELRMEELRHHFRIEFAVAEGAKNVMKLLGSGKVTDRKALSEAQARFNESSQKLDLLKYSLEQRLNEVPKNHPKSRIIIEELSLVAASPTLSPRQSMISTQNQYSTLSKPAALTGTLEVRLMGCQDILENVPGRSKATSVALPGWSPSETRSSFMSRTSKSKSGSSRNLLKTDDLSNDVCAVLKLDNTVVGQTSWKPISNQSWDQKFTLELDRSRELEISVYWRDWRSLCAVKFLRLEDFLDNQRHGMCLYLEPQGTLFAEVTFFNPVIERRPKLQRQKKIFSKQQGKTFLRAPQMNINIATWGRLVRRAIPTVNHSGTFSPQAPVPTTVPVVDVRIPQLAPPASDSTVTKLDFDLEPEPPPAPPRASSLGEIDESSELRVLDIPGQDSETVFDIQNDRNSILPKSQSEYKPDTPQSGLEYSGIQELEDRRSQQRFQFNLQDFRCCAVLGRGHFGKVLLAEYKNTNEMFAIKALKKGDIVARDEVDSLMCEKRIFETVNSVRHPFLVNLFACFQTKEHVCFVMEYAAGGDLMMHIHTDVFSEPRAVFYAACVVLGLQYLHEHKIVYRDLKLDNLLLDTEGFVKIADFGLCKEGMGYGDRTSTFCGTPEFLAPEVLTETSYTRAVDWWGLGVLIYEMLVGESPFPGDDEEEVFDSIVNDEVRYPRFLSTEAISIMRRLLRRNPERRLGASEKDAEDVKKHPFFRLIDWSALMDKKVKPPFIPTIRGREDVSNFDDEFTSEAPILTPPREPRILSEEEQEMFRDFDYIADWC

In the case of CCC(=O)N1CC[C@H](Nc2ncnc3c2CN(c2cnc(OC)c(C(F)(F)F)c2)CC3)C1 [LENIOLISIB], the % of inhibition [1] is reported as 98%.

Compound Cc1ccc(-c2ccc3c(ccc4sc5c(c43)NC[C@@H](C)NC5=O)n2)cn1 has a % of inhibition [2] of -8%.

Work on CC[C@@H]1[C@H](F)C(=O)N[C@@H]1COc1nccc2cc(C(N)=O)c(OC)cc12 [ZIMLOVISERTIB] yielded a % of inhibition [3] of 0%.

With COCC(=O)NC/C=C/c1ccc2ncnc(Nc3ccc(Oc4ccc(C)nc4)c(C)c3)c2c1 [CP-724714] the % of control [4] was 100%.

For COc1cc(Nc2nc(C)cc(-c3cnn4nc(OC)ccc34)n2)cc(C(F)(F)F)c1, the % of control [5] was 93%.

CN(C)CCOc1ccc(-c2nc(-c3ccncc3)c(-c3ccc4c(c3)CC/C4=N\O)[nH]2)cc1 showed a % of control [6] of 86%.

With Nc1cnc(N2CCc3cc(S(=O)(=O)Nc4c(F)cc(Cl)cc4F)cc(N4CCCC4=O)c32)nc1 [TP-020n] the % of control [7] was 96%.

With COc1cc(N(C)c2ccnc3ccc(C(F)(F)F)cc23)cc(OC)c1OC the % binding [8] was 72%.

In the case of Cc1cc([C@@H](C)Nc2ccccc2C(=O)O)c2nc(N3CCOCC3)cc(=O)n2c1 [AZD-6482], the % of control [9] is reported as 100%.

Reference: ChEMBL document CHEMBL5465560, “Selectivity Literature for EUbOPEN Chemogenomic Library” (2024)
